# Test results: patent US20240277637A1, “CAPSAICIN DERIVATIVES IN THE TREATMENT OF IDIOPATHIC PULMONARY FIBROSIS” (aXichem AB, priority 2021, published 2024)
# Legend:
# [1] = test system: human corneal epithelial cells; experiment: Clonogenic cell survival assay, corneal epithelial cells with PDGF-AB (Example 1); assay type: cell-based; conditions: 10 ng/ml PDGF-AB, 14 days
# Method: (§1) Primary isolated human corneal epithelial cells; Normal, Human cells (ATCC® PCS-700-010™) were maintained in culture at 37° C. with 5% CO2 and 95% humidity in serum reduced (5% fetal calf serum) modified promocell media (MPM) supplemented with 4 ng/ml fibronectin (FN), 2 ng/ml human recombinant vascular endothelial growth factor (VEGF) and 4 ng/ml basic fibroblast growth factor (bFGF).
# A clonogenic cell survival assay determines the ability of a cell to proliferate indefinitely. The effects of phenylcapsaicin (2) on clonogenic survival of corneal epithelial cells was investigated by plating the cells with increasing numbers (102 to 5×104) in 25 cm^2 flasks. SU9518, a known inhibitor PDGF that has shown the ability to reduce radiation-induced fibroblast and endothelial cell activation, was used as the positive control. The cells were incubated with 0-10 μM of phenylcapsaicin and SU9518 separately in the presence of 10 ng/ml PDGF-AB. The flasks were returned to the incubator for 14 days, after which they were stained with crystal violet. The colonies were counted, and the surviving
# [2] = test system: human corneal epithelial cells; experiment: Proliferation assay, PDGF-stimulated corneal epithelial proliferation (Example 1); assay type: cell-based; conditions: for IC50: Homo sapiens, Corneal epithelial cell, 10 ng/ml PDGF, 72 hours
# Method: as §1
# (§2) Corneal cells were harvested by trypsinization at 37° C. and neutralized with trypsin-neutralizing solution. A suspension of 50,000 cells in MPM/DMEM was added to 25 ml flasks. The cells were incubated with phenylcapsaicin or SU9518 for 1 hour in cytokine-free medium at standard conditions and incubated for another 72 hours in the presence of final mediums (either with 10 ng/ml PDGF-AB+4 ng/ml FN, or with 2 ng/ml VEGF+4 ng/ml bFGF+4 ng/ml FN). The cells were then dispersed in trypsin, resuspended, and counted in a coulter counter.
# [3] = test system: human corneal epithelial cells; experiment: Proliferation assay, VEGF+bFGF-stimulated corneal epithelial proliferation (Example 1); assay type: cell-based; conditions: Corneal epithelial cell, highest dose tested 10 uM, 72 hours, read-out: IC50, VEGF+bFGF-induced proliferation
# Method: as §1, §2
# [4] = test system: human bronchial epithelial cells; experiment: Proliferation assay, PDGF-stimulated bronchial epithelial proliferation (Example 2); assay type: cell-based; conditions: for IC50: Homo sapiens, Epithelial cell, 10 ng/ml PDGF, 72 hours
# Method: (§3) Primary isolated human bronchial epithelial cells (NHBE) (Normal, Human (ATCC® BEAS-2B™)) were cultured up to passage 6. […].
# as §2, with “Bronchial” for “Corneal”, “trypsinisation” for “trypsinization”, “neutralised” for “neutralized”, “trypsin-neutralising” for “trypsin-neutralizing”
# [5] = test system: human bronchial epithelial cells; experiment: Proliferation assay, VEGF+bFGF-stimulated bronchial epithelial proliferation (Example 2); assay type: cell-based; conditions: 72 hours
# Method: as §3
# as §2, with “Bronchial” for “Corneal”, “trypsinisation” for “trypsinization”, “neutralised” for “neutralized”, “trypsin-neutralising” for “trypsin-neutralizing”
# [6] = test system: human bronchial epithelial cells; experiment: Clonogenic cell survival assay, bronchial epithelial cells with PDGF-AB (Example 3); assay type: cell-based; conditions: 10 ng/ml PDGF-AB, 14 days
# Method: (§4) Primary isolated human bronchial epithelial cells (NHBE) were used in this assay sourced from the American Tissue Culture Collection (Normal, Human (ATCC® BEAS-2B™)) and were cultured up to passage 6. […].
# A clonogenic cell survival assay determines the ability of a cell to proliferate indefinitely. Cells were plated with increasing numbers (102 to 5×10^4) in 25 cm^2 flasks. SU9518, SU9518, a known inhibitor PDGF that has shown the ability to reduce radiation-induced fibroblast and endothelial cell activation, and phenylcapsaicin were used as positive controls. The cells were incubated with 0-10 μM (3% DMSO aqueous) of phenylcapsaicin, SU9518, and compounds 1 and 3-7 separately in the presence of 10 ng/ml PDGF-AB (Sigma Aldrich). The flasks were returned to the incubator for 14 days, after which they were stained with crystal violet (Sigma Aldrich). The colonies were counted and the surviving percentage was determined for clonogenic survival after correcting for plating efficiency.
# [7] = test system: human bronchial epithelial cells; experiment: Clonogenic cell survival assay, bronchial epithelial cells with PDGF-AB (Example 4); assay type: cell-based; conditions: 10 ng/ml PDGF-AB, 14 days
# Method: as §4
# The effects of Phenylcapsaicin (2) on clonogenic survival of bronchial epithelial cells, by plating the cells with increasing numbers (102 to 5×104) in 25 cm^2 flasks were investigated. SU9518* and Phenylcapsaicin were used as positive controls. The cells were incubated with 0-10 μM (3% DMSO aqueous) of Phenylcapsaicin, SU9518, and compounds 8-12 separately in the presence of 10 ng/ml PDGF-AB (Sigma Aldrich). The flasks were returned to the incubator for 14 days, after which they were stained with crystal violet (Sigma Aldrich). The colonies were counted and the surviving percentage was determined for clonogenic survival after correcting for plating efficiency. The synthetic analogs were all calculated at 100% purity for molar concentrations.
# [8] = Acute inhalation toxicity test on rats; conditions: both sexes, rat, in vivo, inhaled; single exposure via inhalation, nose-only; male and female rats; based on active substance
# Description: These findings strongly imply that phenylcapsaicin may be a useful drug against IPF, slowing down or reducing scarring of the lung tissue. Such a reduction in scarring may lead to a delayed progression of IPF and/or ease the symptoms of IPF, such as respiratory difficulty and/or coughing. […] This finding is an indication that the compounds of the invention will have a low toxicity in use against IPF using inhalation as the route of administration.
# [9] = Rage Paulsen et al. 2018; cited from earlier work
# [10] = read-out: IC50, PDGF-induced epithelial proliferation
# [11] = read-out: IC50, PDGF-induced proliferation
smiles,measurement,setting,value
"COc1cc(CNC(=O)CCCCC#Cc2ccccc2)ccc1O [Compound 2, N-(4-hydroxy-3-methoxybenzyl)-7-phenylhept-6-ynamide]",effect on clonogenic survival,[1]; 0-10 μM,dose-dependant inhibitory effect on survival
same,surviving fraction of epithelial cells,[1]; 5 μM,27%
same,IC50,[2]; [10],~1000 nM
same,IC50,[2]; [11],~1000 nM
same,selectivity for PDGF pathway,"[2]; PDGF- versus VEGF+bFGF-induced proliferation, corneal cells",work selectively on the PDGF pathway
same,IC50,[3],> 10000 nM
same,IC50,[4]; [10],~1000 nM
same,IC50,[4]; [11],~2000 nM
same,selectivity for PDGF pathway,"[4]; PDGF- versus VEGF+bFGF-induced proliferation, bronchial cells","work selectively on the PDGF pathway, although at a lower selectivity than in corneal cells"
same,"IC75, epithelial proliferation stimulated by VEGF and bFGF",[5],~5000 nM
same,IC50,"[5]; Homo sapiens, Epithelial cell, highest dose tested 10 uM, read-out: IC50, VEGF+bFGF-induced proliferation",> 10000 nM
same,effect on clonogenic survival / PDGF inhibition (words),[6]; 0-10 μM,reduction in the survival fraction of endothelial cells in a dose dependent manner
same,Clonogenic Survival Assay (percent),[6]; 0.10 μM,83%
same,Clonogenic Survival Assay (percent),"[6]; 0.10 μM, listed as phenylcapsaicin",83%
same,Clonogenic Survival Assay (percent),[6]; 0.50 μM,59%
same,Clonogenic Survival Assay (percent),[6]; 1.00 μM,41%
same,Clonogenic Survival Assay (percent),[6]; 2.00 μM,35%
same,Clonogenic Survival Assay (percent),[6]; 5.00 μM,35%
same,Clonogenic Survival Assay (percent),[6]; 10.00 μM,32%
same,Clonogenic Survival Assay (percent),"[6]; 10.00 μM, listed as phenylcapsaicin",32%
same,effect on clonogenic survival / PDGF inhibition (words),[7]; 0-10 μM,reduction in the survival fraction of endothelial cells in a dose dependent manner
same,Clonogenic Survival Assay (percent),[7]; 0.10 uM,83%
same,Clonogenic Survival Assay (percent),[7]; 0.50 uM,59%
same,Clonogenic Survival Assay (percent),[7]; 1.00 uM,41%
same,Clonogenic Survival Assay (percent),[7]; 2.00 uM,35%
same,Clonogenic Survival Assay (percent),[7]; 5.00 uM,35%
same,Clonogenic Survival Assay (percent),[7]; 10.00 uM,32%
same,LC50,[8],> 5.65 µg/mL
same,gene mutations and chromosomal damage,[9],safe with regards to gene mutations and chromosomal damage
same,systemic toxicity,[9],low systemic toxicity
